# Entries after “also recorded” stand apart in the source; their conditions may differ.
# Key:
# Type in all cases: cell-based, human
# [1] = test system: HEYA8 cells (p53-wild type ovarian cancer); assay: MTS proliferation assay after transient transfection of miR-29a mimic; conditions: HEYA8, miR-29a mimic transiently transfected, vs parental strain and scrambled control, 48 h and 72 h
# Method: (§1) For the in vitro evaluation of miR-29a on cell proliferation of ovarian cancer cells, microRNA mimics of miR-29a were transiently transfected into the p53-deficient ovarian cancer cell line OVCAR8 and the p53-wild type HEYA8 and the impact of this microRNA on cell proliferation was measured by increase in absorbance from the […].
# (§2) The time course MTS assay experiments were run three times (separate days), each with a different set of biological quadruplicates (n=12 per group); within each experiment run, the viability measures within each time point were centered on the mean of the WT group for the first run. For cisplatin treatment, cells were transfected as described, and media was replaced after 24 hrs with media containing cisplatin (Sigma) (0-7.5 μg/mL). Viability was assayed 72 hrs post-transfection. Experiments were run three times, each with a different biological replicate (n=3 per group). For each run, viability measures within each concentration point were centered on the mean of values for the first run.
# [2] = test system: OVCAR-8 cells (p53-deficient ovarian cancer); assay: as above; conditions: OVCAR8, miR-29a mimic transiently transfected, vs parental strain and scrambled control, 48 h and 72 h
# Method: as §1, §2
# HEYA8 cells = assay: Proliferation/viability under cisplatin treatment after miR-29a transfection; conditions: HEYA8, miR-29a 72 h, cisplatin 0-7.5 μg/mL for 48 h, vs scrambled control at same cisplatin dosage
# Method: (§3) FIGS. 6A-6B: Effect of miR-29a (72 h) on proliferation, under a range of concentrations of cisplatin treatment (at 48 h) of HEYA8 (FIG. 6A) and OVCAR-8 cells (FIG. 6B). Error bars are standard error. Proliferation curves of the parental HEYA8 strain treated with a scrambled control sequence and with microRNA mimics for miR-29a are shown.
# as §2
# OVCAR-8 cells = assay: as above; conditions: OVCAR-8, miR-29a 72 h, cisplatin 0-7.5 μg/mL for 48 h
# Method: as §3, §2
# CBX1 = assay: QPCR of gene target after miR-29a overexpression in HEYA8 cells; conditions: HEYA8, forced miR-29a expression vs scrambled control and untreated
# Method: (§4) FIG. 4: QPCR analysis showing relative quantity of selected miR-29a anti-correlated gene targets after miR29a overexpression in HEYA8 ovarian cancer cells (SCR, scrambled control; WT, untreated; two-sided t-test P<0.05, mir-29a vs SCR and miR-29a vs WT, each comparison, except for SAE1).
# (§5) Total RNA (60 ng) was reverse transcribed in a 40 μl reaction using the TaqMan® MicroRNA Reverse Transcription Kit (ABI). QPCR was performed on a StepOne Real-Time PCR System (ABI) using Power-SYBR Green PCR Master Mix (ABI) in a 20 μl reaction and human ribosomal RNA 18s as an endogenous control (which was itself not miR-29a-regulated, data not shown). The QPCR experiments were run four times (separate days), each with independent biological samples (n=4 per group); within each experiment run, relative expression values were normalized to standard deviations from the mean.
# CDC6 = assay: as above; conditions: HEYA8, forced miR-29a expression vs scrambled control and untreated
# Method: as §4, §5
# DNMT3A = assay: as above; conditions: HEYA8, forced miR-29a expression vs scrambled control and untreated
# Method: as §4, §5
# DNMT3B = assay: as above; conditions: HEYA8, forced miR-29a expression vs scrambled control and untreated
# Method: as §4, §5
# MYBL2 = assay: as above; conditions: HEYA8, forced miR-29a expression vs scrambled control and untreated
# Method: as §4, §5
# SAE1 = assay: as above; conditions: HEYA8, forced miR-29a expression vs scrambled control and untreated
# Method: as §4, §5
# TIMELESS = assay: as above; conditions: HEYA8, forced miR-29a expression vs scrambled control and untreated
# Method: as §4, §5
substance,measurement,setting,value
"miR-29a: microRNA mimic of miR-29a (5′-TAGCACCATCTGAAATCGGTTA-3′, SEQ ID NO: 13), transiently transfected into ovarian cancer cells (listed as DNA, chemistry not given here)",effect on cell proliferation,[1],very significantly suppress cell proliferation
same,effect on cell proliferation,[2],moderately suppress cell proliferation
same,effect on proliferation under cisplatin treatment,HEYA8 cells,suppress the proliferation of HEYA8 significantly more effectively than the scrambled control; also recorded: suppresses the proliferation of HEYA8 significantly more effectively than the scrambled control
same,effect on proliferation under cisplatin treatment,OVCAR-8 cells,had an additional effect on chemotherapeutic agent cisplatin in inhibiting the growth
same,relative quantity of CBX1 transcript (QPCR),CBX1,repressed
same,relative quantity of CDC6 transcript (QPCR),CDC6,repressed
same,relative quantity of DNMT3A transcript (QPCR),DNMT3A,repressed
same,relative quantity of DNMT3B transcript (QPCR),DNMT3B,repressed
same,relative quantity of MYBL2 transcript (QPCR),MYBL2,repressed
same,relative quantity of SAE1 transcript (QPCR),SAE1,no functional repression
same,relative quantity of TIMELESS transcript (QPCR),TIMELESS,repressed

# Source: patent publication US20120251619A1, “MicroRNA-29a,b,c as a Tumor Suppressor and Sensitizing Agent for Chemotherapy” (priority 2011, published 2012)
